Measurements published in PubChem BioAssay (NCI).
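Protocol summary: plate cells (96-well), add compound at 5 concentrations, incubate 48 h, interpolate endpoints linearly. Definition used: TGI = concentration required for complete inhibition of growth.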

Key:
Test in all cases: NCI anticancer screen, dose series, 48 h
HCT-116 colon = test system: HCT-116 colon
TK-10 renal = test system: TK-10 renal
IGROV1 ovarian = test system: IGROV1 ovarian
PC-3 prostate = test system: PC-3 prostate
OVCAR-3 ovarian = test system: OVCAR-3 ovarian
HOP-92 NSCLC = test system: HOP-92 NSCLC
MDA-N = test system: MDA-N
SF-539 CNS = test system: SF-539 CNS
ACHN renal = test system: ACHN renal
OVCAR-8 ovarian = test system: OVCAR-8 ovarian
UACC-257 melanoma = test system: UACC-257 melanoma
NCI-H522 lung = test system: NCI-H522 lung
DU-145 prostate = test system: DU-145 prostate
K-562 leukemia = test system: K-562 leukemia
NCI-H460 lung = test system: NCI-H460 lung
M14 melanoma = test system: M14 melanoma
MOLT-4 leukemia = test system: MOLT-4 leukemia
RPMI-8226 leukemia = test system: RPMI-8226 leukemia
A498 renal = test system: A498 renal
UACC-62 melanoma = test system: UACC-62 melanoma
HS 578T breast = test system: HS 578T breast
SK-MEL-5 melanoma = test system: SK-MEL-5 melanoma
HCC-2998 colon = test system: HCC-2998 colon
SF-295 CNS = test system: SF-295 CNS
CAKI-1 renal = test system: CAKI-1 renal
SN12C renal = test system: SN12C renal
MCF7 breast = test system: MCF7 breast
OVCAR-4 ovarian = test system: OVCAR-4 ovarian
SK-MEL-2 melanoma = test system: SK-MEL-2 melanoma
OVCAR-5 ovarian = test system: OVCAR-5 ovarian
BT-549 breast = test system: BT-549 breast
MALME-3M melanoma = test system: MALME-3M melanoma
COLO 205 colon = test system: COLO 205 colon
HCT-15 colon = test system: HCT-15 colon
HL-60(TB) leukemia = test system: HL-60(TB) leukemia
A549 NSCLC = test system: A549 NSCLC
NCI-H23 lung = test system: NCI-H23 lung
786-0 renal = test system: 786-0 renal
SW-620 colon = test system: SW-620 colon
SK-OV-3 ovarian = test system: SK-OV-3 ovarian
SNB-19 CNS = test system: SNB-19 CNS
CCRF-CEM leukemia = test system: CCRF-CEM leukemia
MDA-MB-435 = test system: MDA-MB-435
HT29 colon = test system: HT29 colon
KM12 colon = test system: KM12 colon
SK-MEL-28 melanoma = test system: SK-MEL-28 melanoma
NCI/ADR-RES ovarian = test system: NCI/ADR-RES ovarian
U251 CNS = test system: U251 CNS
HOP-62 NSCLC = test system: HOP-62 NSCLC
EKVX NSCLC = test system: EKVX NSCLC
T-47D breast = test system: T-47D breast
SF-268 CNS = test system: SF-268 CNS
LOX IMVI melanoma = test system: LOX IMVI melanoma
RXF 393 renal = test system: RXF 393 renal
SR leukemia = test system: SR leukemia
MDA-MB-231 breast = test system: MDA-MB-231 breast

**Q.** `CCC(C)C(NC(=O)C(CCCCN)NC(=O)C(NC(=O)C(CCC(N)=O)NC(=O)C(CCCNC(=N)N)NC(C)=O)C(C)CC)C(=O)NC(Cc1c[nH]c2ccccc12)C(=O)NC(Cc1ccccc1)C(=O)NC(CCC(N)=O)C(=O)NC(CC(N)=O)C(=O)NC(CCCNC(=N)N)C(=O)NC(CCCNC(=N)N)C(=O)NC(CCSC)C(=O)NC(CCCCN)C(=O)NC(Cc1c[nH]c2ccccc12)C(=O)NC(CCCCN)C(=O)NC(CCCCN)C(N)=O` (stereo unspecified) was tested. Which TGI (HCT-116 colon) did it give?
**A.** Its TGI is greater than 50 µM.

**Q.** What about the TGI (TK-10 renal) of the same compound?
**A.** Its TGI is greater than 50 µM.

**Q.** What about the TGI (IGROV1 ovarian) of the same compound?
**A.** The TGI was greater than 50 µM.

**Q.** What about the TGI (PC-3 prostate) of the same compound?
**A.** Its TGI is greater than 50 µM.

**Q.** And the TGI (OVCAR-3 ovarian)?
**A.** Its TGI is greater than 50 µM.

**Q.** What about the TGI (HOP-92 NSCLC) of the same compound?
**A.** Its TGI is greater than 50 µM.

**Q.** What about the TGI (MDA-N) of the same compound?
**A.** The TGI was greater than 50 µM.

**Q.** What about the TGI (SF-539 CNS) of the same compound?
**A.** The TGI was greater than 50 µM.

**Q.** What about the TGI (ACHN renal) of the same compound?
**A.** Its TGI is greater than 50 µM.

**Q.** And the TGI (OVCAR-8 ovarian)?
**A.** The TGI was greater than 50 µM.

**Q.** And the TGI (UACC-257 melanoma)?
**A.** Its TGI is greater than 50 µM.

**Q.** What about the TGI (NCI-H522 lung) of the same compound?
**A.** Its TGI is greater than 50 µM.

**Q.** What about the TGI (DU-145 prostate) of the same compound?
**A.** Its TGI is greater than 50 µM.

**Q.** What about the TGI (K-562 leukemia) of the same compound?
**A.** The TGI was greater than 50 µM.

**Q.** What about the TGI (NCI-H460 lung) of the same compound?
**A.** The TGI was greater than 50 µM.

**Q.** And the TGI (M14 melanoma)?
**A.** Its TGI is greater than 50 µM.

**Q.** And the TGI (MOLT-4 leukemia)?
**A.** The TGI was greater than 50 µM.

**Q.** What about the TGI (RPMI-8226 leukemia) of the same compound?
**A.** The TGI was greater than 50 µM.

**Q.** What about the TGI (A498 renal) of the same compound?
**A.** Its TGI is greater than 50 µM.

**Q.** What about the TGI (UACC-62 melanoma) of the same compound?
**A.** The TGI was greater than 50 µM.

**Q.** And the TGI (HS 578T breast)?
**A.** The TGI was greater than 50 µM.

**Q.** What about the TGI (SK-MEL-5 melanoma) of the same compound?
**A.** The TGI was greater than 50 µM.

**Q.** What about the TGI (HCC-2998 colon) of the same compound?
**A.** Its TGI is greater than 50 µM.

**Q.** What about the TGI (SF-295 CNS) of the same compound?
**A.** Its TGI is greater than 50 µM.

**Q.** And the TGI (CAKI-1 renal)?
**A.** The TGI was greater than 50 µM.

**Q.** What about the TGI (SN12C renal) of the same compound?
**A.** The TGI was greater than 50 µM.

**Q.** What about the TGI (MCF7 breast) of the same compound?
**A.** The TGI was greater than 50 µM.

**Q.** And the TGI (OVCAR-4 ovarian)?
**A.** The TGI was greater than 50 µM.

**Q.** What about the TGI (SK-MEL-2 melanoma) of the same compound?
**A.** Its TGI is greater than 50 µM.

**Q.** What about the TGI (OVCAR-5 ovarian) of the same compound?
**A.** Its TGI is 22.5 µM.

**Q.** And the TGI (BT-549 breast)?
**A.** Its TGI is greater than 50 µM.

**Q.** What about the TGI (MALME-3M melanoma) of the same compound?
**A.** Its TGI is greater than 50 µM.

**Q.** What about the TGI (COLO 205 colon) of the same compound?
**A.** Its TGI is greater than 50 µM.

**Q.** And the TGI (HCT-15 colon)?
**A.** The TGI was greater than 50 µM.

**Q.** What about the TGI (HL-60(TB) leukemia) of the same compound?
**A.** The TGI was greater than 50 µM.

**Q.** And the TGI (A549 NSCLC)?
**A.** Its TGI is greater than 50 µM.

**Q.** And the TGI (NCI-H23 lung)?
**A.** The TGI was greater than 50 µM.

**Q.** What about the TGI (786-0 renal) of the same compound?
**A.** The TGI was 42.1 µM.

**Q.** And the TGI (SW-620 colon)?
**A.** The TGI was greater than 50 µM.

**Q.** And the TGI (SK-OV-3 ovarian)?
**A.** The TGI was greater than 50 µM.

**Q.** And the TGI (SNB-19 CNS)?
**A.** Its TGI is greater than 50 µM.

**Q.** And the TGI (CCRF-CEM leukemia)?
**A.** Its TGI is greater than 50 µM.

**Q.** And the TGI (MDA-MB-435)?
**A.** The TGI was greater than 50 µM.

**Q.** And the TGI (HT29 colon)?
**A.** Its TGI is greater than 50 µM.

**Q.** What about the TGI (KM12 colon) of the same compound?
**A.** The TGI was greater than 50 µM.

**Q.** What about the TGI (SK-MEL-28 melanoma) of the same compound?
**A.** The TGI was greater than 50 µM.

**Q.** What about the TGI (NCI/ADR-RES ovarian) of the same compound?
**A.** The TGI was greater than 50 µM.

**Q.** And the TGI (U251 CNS)?
**A.** Its TGI is greater than 50 µM.

**Q.** What about the TGI (HOP-62 NSCLC) of the same compound?
**A.** The TGI was greater than 50 µM.

**Q.** And the TGI (EKVX NSCLC)?
**A.** The TGI was greater than 50 µM.

**Q.** And the TGI (T-47D breast)?
**A.** The TGI was greater than 50 µM.

**Q.** And the TGI (SF-268 CNS)?
**A.** The TGI was greater than 50 µM.

**Q.** And the TGI (LOX IMVI melanoma)?
**A.** The TGI was greater than 50 µM.

**Q.** And the TGI (RXF 393 renal)?
**A.** The TGI was greater than 50 µM.

**Q.** And the TGI (SR leukemia)?
**A.** The TGI was greater than 50 µM.

**Q.** And the TGI (MDA-MB-231 breast)?
**A.** Its TGI is 41.3 µM.
